From publication PMC11475482, “The 2‐oxoglutarate/malate carrier extends the family of mitochondrial carriers capable of fatty acid and 2,4‐dinitrophenol‐activated proton transport” (Acta Physiologica (Oxford, England), 2024)
Numbering of substitutions follows the chain as printed.

Key:
Assay in all cases: planar lipid bilayer proton conductance
Type in all cases: biochemical
[1] = biological target: T1, mOGC (2‐oxoglutarate/malate carrier, SLC25A11) (Mus musculus, UniProt Q9CR62)
T1 construct: 34 kDa monomer, dimer (~69 kDa) on SDS-PAGE (dimer possibly artefact); tag not mentioned
T1 sequence (Q9CR62 2-314): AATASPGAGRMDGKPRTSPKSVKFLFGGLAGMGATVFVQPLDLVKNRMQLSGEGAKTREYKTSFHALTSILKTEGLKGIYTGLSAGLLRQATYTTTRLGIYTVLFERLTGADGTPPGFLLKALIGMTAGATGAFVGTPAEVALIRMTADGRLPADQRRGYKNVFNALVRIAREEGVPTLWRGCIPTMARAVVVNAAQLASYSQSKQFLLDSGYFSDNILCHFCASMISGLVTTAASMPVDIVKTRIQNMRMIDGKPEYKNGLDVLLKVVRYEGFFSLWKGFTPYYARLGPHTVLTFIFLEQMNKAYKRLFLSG

[2] = biological target: T2, mOGC (2‐oxoglutarate/malate carrier, SLC25A11) (Mus musculus, UniProt Q9CR62, R90S)
T2 construct: 34 kDa monomer, dimer (~69 kDa) on SDS-PAGE (dimer possibly artefact); tag not mentioned
T2 sequence (Q9CR62 2-314 R90S): T1 sequence (Q9CR62 2-314) with R89S

[3] = biological target: T1, mOGC (2‐oxoglutarate/malate carrier, SLC25A11); conditions: total membrane conductance with mOGC; activator (protonophore); pH 7.34, 32°C
[4] = biological target: T1, mOGC (2‐oxoglutarate/malate carrier, SLC25A11); conditions: read-out: % inhibition at 4 mM

IC50 [1] [µM] | Gm at 15 mol% [3] [nS/cm^2] | inhibition at 4000 µM [4] [%] | Structure (SMILES) | inhibition at 2000 µM [2] [%]
60 ± 10 | – | – | O=C(O)CCC(=O)C(=O)O [2‐oxoglutarate] | 19
1000 ± 110 | – | – | O=C(O)CC(C(=O)O)c1ccccc1 (stereo not shown) [phenylsuccinate] | –
– | 92.5 ± 16.5 | – | CCCCC/C=C\C/C=C\C/C=C\C/C=C\CCCC(=O)O [arachidonic acid] | –
– | – | 75 | Nc1ncnc2c1ncn2[C@@H]1O[C@H](COP(=O)(O)OP(=O)(O)OP(=O)(O)O)[C@@H](O)[C@H]1O [ATP] | –

Structure (SMILES) | IC50 [1] [µM] | Gm at 15 mol% [3] [nS/cm^2] | inhibition at 4000 µM [4] [%] | inhibition at 2000 µM [2] [%]
O=C(O)C[C@H](O)C(=O)O [malate] | 100 ± 60 | – | – | 74
